Biological target: T1, KCNQ2/3 channels (Homo sapiens, UniProt O43525+O43526)
T1 construct: expressed in transfected cells; host or cells: CHO-K1
Assay: Fluorescence assay using a voltage-sensitive dye
Type: cell-based
Conditions: CHO-K1 cells expressing KCNQ2/3 channels, agonistic activity; for activation at 10 µM: 10 μmol test substance, read-out: % Stimulation [10 μmol] Average
Description: Fluorescence Assay Using a Voltage-Sensitive Dye
Human CHO-K1 cells expressing KCNQ2/3 channels are cultivated adherently at 37° C., 5% CO2 and 95% humidity in cell culture bottles (e.g. 80 cm^2 TC flasks, Nunc) with MEM Alpha Medium (1×, liquid, Invitrogen, #22571), 10% foetal calf serum (FCS) (Invitrogen, #10270-106, heat-inactivated) and the necessary selection antibiotics. Before being spread out for the measurements, the cells are washed with a 1×DPBS buffer without Ca^2+/Mg^2+ (e.g. Invitrogen, #14190-094) and detached from the bottom of the culture vessel by means of Accutase (PAA Laboratories, #L11-007) (incubation with Accutase for 15 min at 37° C.). The cell count then present is determined using a CASY™ cell counter (TCC model, Schärfe System) in order subsequently to apply 20,000 cells/well/100 μl of the described nutrient medium to 96-well measuring plates of the Corning™ CellBIND™ type (flat clear-bottom black polystyrene microplates, #3340). Incubation is then carried out for one hour at room temperature, without gassing or adjusting the humidity, followed by incubation for 24 hours at 37° C., 5% CO2 and 95% humidity.
The voltage-sensitive fluorescent dye from the Membrane Potential Assay Kit (Red bulk format part R8123 for FLIPR, Molecular Devices™) is prepared by dissolving the contents of a vessel of Membrane Potential Assay Kit Red Component A in 200 ml of extracellular buffer (ES buffer, 120 mM NaCl, 1 mM KCl, 10 mM HEPES, 2 mM CaCl2, 2 mM MgCl2, 10 mM glucose; pH 7.4). After removal of the nutrient medium, the cells are washed with 200 μl of ES buffer, then covered with a layer of 100 μl of the dye solution prepared above and incubated for 45 min at room temperature with exclusion of light.
The fluorescence measurements are carried out with a BMG Labtech FLUOstar™ or BMG Labtech POLARstar™ instrument (525 nm excitation, 560 nm emission, bottom-read mode). After incubation of the dye, 50 μl of the substances to be tested in the desired concentrations, or 50 μl of ES buffer for control purposes, are introduced into separate cavities of the measuring plate and incubated for 30 min at room temperature whilst being shielded from light. The fluorescence intensity of the dye is then measured for 5 min and the fluorescence value F1 of each well is thus determined at a given, constant time. 15 μl of a […] KCl solution ([…]) are then added to each well. The change in fluorescence is subsequently measured until all relevant measured values have been obtained (mainly 5-30 min). At a given time after KCl application, a fluorescence value F2 is determined, in this case at the time of the fluorescence peak.
For calculation, the fluorescence intensity F2 is compared with the fluorescence intensity F1, and the agonistic activity of the target compound on the potassium channel is determined therefrom. F2 and F1 are calculated as follows:
[formula] In order to determine whether a substance has an agonistic activity,
[formula] for example, can be compared with
[formula] of control cells.
[formula] is determined by adding to the reaction batch only the buffer solution instead of the substance to be tested, determining the value F1K of the fluorescence intensity, adding the potassium ions as described above and measuring a value F2K of the fluorescence intensity. Then F2K and F1K are calculated as follows:
[formula] A substance has an agonistic activity on the potassium channel when
[formula] is greater than
[formula] Independently of the comparison of
[formula] it is also possible to conclude that a target compound has an agonistic activity if an increase in
[formula] is to be observed as the dosage of the target compound increases. Calculations of EC50 and IC50 values are carried out with the aid of Prism 4 software (GraphPad Software™).

Structure (SMILES) | EC50 | activation at 10 µM
CCCCCCNC(=O)c1cn2c(n1)CCC(c1cc(C)c(OC)c(C)c1)C2 (centres unmarked) [Compound 16, N-Hexyl-6-(4-methoxy-3,5-dimethylphenyl)-5,6,7,8-tetrahydroimidazo[1,2-a]pyridine-2-carboxamide] | 3.95 µM | –
COc1ccc(C2CCc3nc(C(=O)NCc4cccc(C(F)(F)F)c4)cn3C2)cc1 (centres unmarked) [Compound 39, 6-(4-Methoxyphenyl)-N-(3-(trifluoromethyl)benzyl)-5,6,7,8-tetrahydroimidazo[1,2-a]pyridine-2-carboxamide] | – | 17.8%
Cc1ccc(C2CCc3nc(C(=O)N4CCN(c5cccc(C(F)(F)F)c5)CC4)cn3C2)cc1 (centres unmarked) [Compound 74, (6-p-Tolyl-5,6,7,8-tetrahydroimidazo[1,2-a]pyridin-2-yl)(4-(3-(trifluoromethyl)phenyl)piperazin-1-yl)methanone] | – | 51.9%
Cc1cc(C2CCc3nc(C(=O)N4CCN(c5cccc(F)c5)CC4)cn3C2)ccc1F (centres unmarked) [Compound 83, (6-(4-Fluoro-3-methylphenyl)-5,6,7,8-tetrahydroimidazo[1,2-a]pyridin-2-yl)(4-(3-fluorophenyl)piperazin-1-yl)methanone] | 6.5 µM | –
COc1cccc(C2CCc3nc(C(=O)NC(C)CCc4ccccc4)cn3C2)c1 (centres unmarked) [Compound 60, 6-(3-Methoxyphenyl)-N-(4-phenylbutan-2-yl)-5,6,7,8-tetrahydroimidazo[1,2-a]pyridine-2-carboxamide] | 6.4 µM | –
Cc1cc(C2CCc3nc(C(=O)NC(C)CCc4cccc(C(F)(F)F)c4)cn3C2)ccc1F (centres unmarked) [Compound 86, 6-(4-Fluoro-3-methylphenyl)-N-(4-(3-(trifluoromethyl)phenyl)butan-2-yl)-5,6,7,8-tetrahydroimidazo[1,2-a]pyridine-2-carboxamide] | 1.2 µM | –
O=C(c1cn2c(n1)CCC(c1cccc(C(F)(F)F)c1)C2)N1CCCC1 (centres unmarked) [Compound 31, Pyrrolidin-1-yl(6-(3-(trifluoromethyl)phenyl)-5,6,7,8-tetrahydroimidazo[1,2-a]pyridin-2-yl)methanone] | – | 17.6%
CCOc1ccccc1N1CCN(C(=O)c2cn3c(n2)CCC(c2cccc(C)c2)C3)CC1 (centres unmarked) [Compound 45, (4-(2-Ethoxyphenyl)piperazin-1-yl)(6-m-tolyl-5,6,7,8-tetrahydroimidazo[1,2-a]pyridin-2-yl)methanone] | 7.98 µM | –
Cc1cc(C2CCc3nc(C(=O)N4CCN(Cc5ccccc5)CC4)cn3C2)ccc1F (centres unmarked) [Compound 80, (4-Benzylpiperazin-1-yl)(6-(4-fluoro-3-methylphenyl)-5,6,7,8-tetrahydroimidazo[1,2-a]pyridin-2-yl)methanone] | – | 33.1%
Cc1cc(C2CCc3nc(C(=O)N4CCN(c5ccc(C(F)(F)F)cc5)CC4)cn3C2)ccc1F (centres unmarked) [Compound 62, (6-(4-Fluoro-3-methylphenyl)-5,6,7,8-tetrahydroimidazo[1,2-a]pyridin-2-yl)(4-(4-(trifluoromethyl)phenyl)piperazin-1-yl)methanone] | – | 40.8%
Cc1ccc(C2CCc3nc(C(=O)N4CCC(Cc5ccccc5)CC4)cn3C2)cc1 (centres unmarked) [Compound 73] | – | 88.8%
Cc1ccccc1C1CCc2nc(C(=O)N3CCCC3)cn2C1 (centres unmarked) [Compound 34, Pyrrolidin-1-yl(6-o-tolyl-5,6,7,8-tetrahydroimidazo[1,2-a]pyridin-2-yl)methanone] | – | 32.2%
CCc1ccc(C2CCc3nc(C(=O)NC(C)CCc4ccccc4)cn3C2)cc1 (centres unmarked) [Compound 52, 6-(4-Ethylphenyl)-N-(4-phenylbutan-2-yl)-5,6,7,8-tetrahydroimidazo[1,2-a]pyridine-2-carboxamide] | – | 34.2%
CC(CCc1ccccc1)NC(=O)c1cn2c(n1)CCC(c1cccc(F)c1)C2 (centres unmarked) [Compound 51, 6-(3-Fluorophenyl)-N-(4-phenylbutan-2-yl)-5,6,7,8-tetrahydroimidazo[1,2-a]pyridine-2-carboxamide] | – | 16.2%
CCc1ccc(C2CCc3nc(C(=O)N4CCCC4)cn3C2)cc1 (centres unmarked) [Compound 37, (6-(4-Ethylphenyl)-5,6,7,8-tetrahydroimidazo[1,2-a]pyridin-2-yl)(pyrrolidin-1-yl)methanone] | – | 15.5%
CCCCCNC(=O)c1cn2c(n1)CCC(c1ccc(Oc3ccccc3)cc1)C2 (centres unmarked) [Compound 28, N-Pentyl-6-(4-phenoxyphenyl)-5,6,7,8-tetrahydroimidazo[1,2-a]pyridine-2-carboxamide] | 9.38 µM | –
COc1ccc(CCNC(=O)c2cn3c(n2)CCC(c2ccc(Oc4ccccc4)cc2)C3)cc1OC (centres unmarked) [Compound 27, N-(3,4-Dimethoxyphenethyl)-6-(4-phenoxyphenyl)-5,6,7,8-tetrahydroimidazo[1,2-a]pyridine-2-carboxamide] | 6.35 µM | –
COc1ccc(C2CCc3nc(C(=O)N4CCN(c5cccc(C(F)(F)F)c5)CC4)cn3C2)c(OC)c1 (centres unmarked) [Compound 46, (6-(2,4-Dimethoxyphenyl)-5,6,7,8-tetrahydroimidazo[1,2-a]pyridin-2-yl)(4-(3-(trifluoromethyl)phenyl)piperazin-1-yl)methanone] | 3.98 µM | –
Cc1cc(C2CCc3nc(C(=O)N4CCN(c5ccccc5F)CC4)cn3C2)ccc1F (centres unmarked) [Compound 13, (6-(4-Fluoro-3-methylphenyl)-5,6,7,8-tetrahydroimidazo[1,2-a]pyridin-2-yl)(4-(2-fluorophenyl)piperazin-1-yl)methanone] | – | 18%
O=C(NCc1cccnc1)c1cn2c(n1)CCC(c1ccc(Oc3ccccc3)cc1)C2 (centres unmarked) [Compound 24, 6-(4-Phenoxyphenyl)-N-(pyridin-3-ylmethyl)-5,6,7,8-tetrahydroimidazo[1,2-a]pyridine-2-carboxamide] | 6.14 µM | –
Cc1cc(C)cc(C(C)NC(=O)c2cn3c(n2)CCC(c2ccc(F)c(C)c2)C3)c1 (centres unmarked) [Compound 78, N-(1-(3,5-Dimethylphenyl)ethyl)-6-(4-fluoro-3-methylphenyl)-5,6,7,8-tetrahydroimidazo[1,2-a]pyridine-2-carboxamide] | – | 29.7%
COc1ccc(C2CCc3nc(C(=O)N4CCN(c5cccc(C(F)(F)F)c5)CC4)cn3C2)cc1 (centres unmarked) [Compound 69, (6-(4-Methoxyphenyl)-5,6,7,8-tetrahydroimidazo[1,2-a]pyridin-2-yl)(4-(3-(trifluoromethyl)phenyl)piperazin-1-yl)methanone] | – | 30.1%
O=C(c1cn2c(n1)CCC(c1ccc(OCc3ccccc3)cc1)C2)N1CCN(c2cccc(C(F)(F)F)c2)CC1 (centres unmarked) [Compound 82, (6-(4-(Benzyloxy)phenyl)-5,6,7,8-tetrahydroimidazo[1,2-a]pyridin-2-yl)(4-(3-(trifluoromethyl)phenyl)piperazin-1-yl)methanone] | – | 32.7%
COc1ccc(N2CCN(C(=O)c3cn4c(n3)CCC(c3cc(C)c(OC)c(C)c3)C4)CC2)cc1 (centres unmarked) [Compound 44, (6-(4-Methoxy-3,5-dimethylphenyl)-5,6,7,8-tetrahydroimidazo[1,2-a]pyridin-2-yl)(4-(4-methoxyphenyl)piperazin-1-yl)methanone] | – | 27.5%
CC1(C)CC2CC(C)(CN2C(=O)c2cn3c(n2)CCC(c2ccc(F)cc2)C3)C1 (centres unmarked) [Compound 38, (6-(4-Fluorophenyl)-5,6,7,8-tetrahydroimidazo[1,2-a]pyridin-2-yl)(1,3,3-trimethyl-6-azabicyclo[3.2.1]octan-6-yl)methanone] | – | 25.9%
Cc1cc(C2CCc3nc(C(=O)N4CCN(c5cccc(C(F)(F)F)c5)CC4)cn3C2)ccc1F (centres unmarked) [Compound 58, (6-(4-Fluoro-3-methylphenyl)-5,6,7,8-tetrahydroimidazo[1,2-a]pyridin-2-yl)(4-(3-(trifluoromethyl)phenyl)piperazin-1-yl)methanone] | 4.46 µM | –
